Laboratory results from patent US6165984A, “Naringin and naringenin as inhibitors of acyl CoA-cholesterol-o-acyltransferase” (Korea Institute of Science & Technology, priority 1997, dated 2000).

Columns and labels:
[1] = tested on: macrophage-lipid complex on the arterial endothelium; assay: Fatty streak analysis: macrophage-lipid complex on main artery of cholesterol-fed rabbits (Example 6); format: in vivo, New Zealand White rabbit; details: for inhibition of accumulation of macrophage-lipid complex on the arterial endothelium (conclusion): 0.1% in 1% cholesterol diet; for area of macrophage-lipid complex accumulated on the arterial endothelium, compared to control group / M-L (macrophage-lipid) complex area: 1% cholesterol diet, 6 weeks, 0.1% naringin or naringenin; for M-L (macrophage-lipid) complex area: proportion of total arterial area, control 35
Description: RC4 diet comprises 7.6% moisture, 22.8% crude protein, 2.8% crude fat, 8.8% crude ash, 14.4% crude cellulose and 43.6% soluble nitrogen-free substances. The rabbits were bred for 6 weeks while being allowed free access to the diets and water. The rabbits bred in (Step 1) were sacrificed and their chest were incised. The main artery was cut out therefrom in a length of about 5 cm downward from the site 1 cm above the aortic valve and the fat surrounding the main artery was removed. The main artery was incised in the middle along the longitudinal axis and pinned to a dish. The moist artery was photographed and, then, staining of fatty streak was carried out in accordance with the method of […]., et al. (J. Lab. Clin. […] A part of the incised main artery was washed three times by 2 min. with anhydrous propylene glycol and stained for 30 min. with a saturated solution of Oil Red O (ORO, Sigma Co.) dissolved in propylene glycol. Thereafter, the artery was washed twice by 3 min. with 85% propylene glycol to remove remaining staining solution and, then washed with physical saline. The artery was photographed and the photograph was traced. The area of stained region (fatty streak region) was determined with an image analyzer (LEICA, Q-600, Germany) and its proportion (%) to the total arterial area was calculated. On the other hand, the other part of the main artery was stained in accordance with hematoxylin-eosin (H&E) and Masson's trichrome staining methods and observed under a microscope to confirm whether the macrophage-lipid complexes were accumulated in the intima, internus, elastic lamina and media.

ICR mice = assay: Acute oral toxicity of naringin or naringenin in mice; format: in vivo, mouse; details: for toxicity or mitogenicity: tests using mice
Protocol: 7 to 8 week-old, specific pathogen-free ICR female mice (6 heads) each weighing about 25 to 29 g and male mice (6 heads) each weighing about 34 to 38 g were bred under a condition of temperature 22±1° C., moisture 55±5% and photoperiod 12L/12D. Fodder (Cheiljedang Co., mouse and rat fodder) and water were sterilized and fed to the mice.
Naringin or naringenin was dissolved in 0.5% Tween 80 to a concentration of 100 mg/ml, and the solution was orally administered to the mice in an amount of 0.2 ml per 20 g of mouse body weight. […] The weight changes of the mice were recorded every day to examine the effect of naringin or naringenin. Further, on the 10th day, the mice were sacrificed and the internal organs were visually examined.

liver function = details: in vivo
[2] = tested on: acyl CoA-cholesterol-o-acyltransferase (ACAT); assay: ACAT activity in liver microsomes of naringin- or naringenin-fed rats (Example 5); format: in vivo, Sprague-Dawley rat; details: liver microsomes of rats fed 0.1% compound in 1% cholesterol diet; for ACAT activity: control 806.2 ± 105.2; for % Inhibition on ACAT activity: vs control group
Description: 30 four-week-old Sprague-Dawley rats (Taihan laboratory animal center, Korea) each weighing about 90 to 110 g were evenly divided into three dietary groups by a randomized block design. The rats of the three groups were fed with three different high-cholesterol diets, i.e., AIN-76 laboratory animal diet (ICN Biochemicals, Cleveland, Ohio, U.S.A.) containing 1% cholesterol (Control group), and 1% cholesterol plus 0.1% naringin or naringenin, respectively.
To determine the effects of naringin and naringenin feeding to rats on the activity of ACAT, microsomes were separated from the liver tissue to be used as an enzyme source.
First, the rats of the three groups prepared in Example 3 were sacrificed by decapitation and the livers were excised. 1 g each of the livers was homogenized in 5 ml of homogenization medium (0.1 M KH2 PO4, pH 7.4, 0.1 mM EDTA and 10 mM β-mercaptoethanol). The homogenate was centrifuged at 3,000×g for 10 min. at 4° C. and the supernatant thus obtained was centrifuged at 15,000×g for 15 min. at 4° C. to obtain a supernatant. The supernatant was put into an ultracentrifuge tube (Beckman) and centrifuged at 100,000×g for 1 hour at 4° C. to obtain microsomal pellets, which were then suspended in 3 ml of the homogenization medium and centrifuged at 100,000×g for 1 hour at 4° C. The pellets thus obtained were suspended in 1 ml of the homogenization medium. The concentration of proteins in the resulting suspension was determined by Lowry's method and then adjusted to 4 to 8 mg/ml. The resulting suspension was stored in a deep freezer (Biofreezer, Forma Scientific Inc.).
6.67 μl of 1 mg/ml cholesterol solution in acetone was mixed with 6 μl of 10% Triton WR-1339(Sigma Co.) in acetone and, then, acetone was removed from the mixture by evaporation using nitrogen gas. Distilled water was added to the resulting mixture in an amount to adjust the concentration of cholesterol to […].
To 10 μl of the resulting aqueous cholesterol solution were added 10 μl of 1 M KH2 PO4 (pH 7.4), 5 μl of 0.6 mM bovine serum albumin (BSA), 10 μl of microsome solution obtained in (Step 1) and 55 μl of distilled water (total 90 μl). The mixture was pre-incubated in a waterbath at 37° C. for 30 min.
10 μl of (1-^14 C) oleoyl-CoA solution (0.05 μCi, final concentration: 10 μM) was added to the pre-incubated mixture and the resulting mixture was incubated in a waterbath at 37° C. for 30 min. […]
200 μl of the resulting supernatant was put in a scintillation bottle and 4 ml of scintillation fluid (Lumac) was added thereto. The mixture was assayed for radioactivity with 1450 Microbeta liquid scintillation counter (Wallacoy, Finland). ACAT activity was calculated as picomoles of cholesteryl oleate synthesized per min. per mg protein (pmoles/min/mg protein).

[3] = literature; cited from earlier work
[4] = single oral dose, 1,000 mg/kg, mice

Compound	layer of macrophage-lipid complex on the arterial endothelium (FIGS. 1A-1C) ([1]; 1 mg/kg Lovastatin, 0.1% naringin, control: thick layer)	inhibition of accumulation of macrophage-lipid complex on the arterial endothelium (conclusion) [1]	area of macrophage-lipid complex accumulated on the arterial endothelium, compared to control group ([1]; 1 mg/kg Lovastatin)	M-L (macrophage-lipid) complex area ([1]; 1 mg/kg Lovastatin)	corresponding oral administration dose for a person weighing 50 kg (ICR mice; mouse, in vivo)	survival at day 10 (ICR mice; [4])	toxicity or mitogenicity (ICR mice)	adverse effects on the liver function (liver function)	ACAT activity [2]	% Inhibition on ACAT activity [2]	reported activities [3]	weight loss (ICR mice; single oral dose, 1,000 mg/kg, mice, 10 day test period)	toxicity (ICR mice; single oral dose, 1,000 mg/kg, mice, 10 days)	pathological abnormality at autopsy (ICR mice; single oral dose, 1,000 mg/kg, mice, day 10)
C[C@@H]1O[C@@H](O[C@H]2[C@H](Oc3cc(O)c4c(c3)O[C@H](c3ccc(O)cc3)CC4=O)O[C@H](CO)[C@@H](O)[C@@H]2O)[C@H](O)[C@H](O)[C@H]1O [naringin, Naringin]	no or very thin layers of macrophage-lipid complex	strongly inhibit	decreased significantly	12%	50-100 g/kg body weight	All the mice were alive	little toxicity or mitogenicity	no adverse effects on the liver function	643.5 ± 80.7 pmole/min/mg protein	20.2%	anti-cancer, anti-viral and cholesterol lowering activities			
O=C1C[C@@H](c2ccc(O)cc2)Oc2cc(O)cc(O)c21 [naringenin]		strongly inhibit	decreased significantly	13%		All the mice were alive	little toxicity or mitogenicity	no adverse effects on the liver function	666.3 ± 65.3 pmole/min/mg protein	17.4%	anti-cancer, anti-viral and cholesterol lowering activities	no weight loss	no toxicity	did not develop any pathological abnormality
